# From the supplement of paper PMC10307832
# Compound: O=C(NC1CCNCC1)c1n[nH]cc1NC(=O)c1c(Cl)cccc1Cl [AT-7519] + NC(=O)Nc1cc(-c2cccc(F)c2)sc1C(=O)N[C@H]1CCCNC1 [AZD7762] (partner 0.2 µM)
# Assay: relative viability (nuclei count vs DMSO), 5 days (fraction); higher = more cells survive
# Conditions: first compound 0.01 µM
# Method in brief: (§1)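 Relative viability equals treated-well nuclei counts divided by vehicle-well nuclei counts. Counts came from 4× images of lung cancer cell lines grown in 1536-well plates for 5 days after pin-tool dosing on the day after seeding. Dosing used one drug alone or a fixed anchor-drug dose plus five library-drug doses (not always all listed) in √10 steps, and values are medians of duplicate plates.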
row,Cell Line,relative viability
1,NCI-H2342,0.514
2,NCI-H727,0.571
3,NCI-H1993,0.671
4,NCI-H838,0.925
5,LCLC-103H,0.8
6,NCI-H2126,1
7,EMC-BAC-2,1.09
8,NCI-H2085,0.977
9,HCC-366,0.326
10,NCI-H1666,0.852
11,NCI-H596,1.22
12,LK-2,0.456
13,NCI-H2087,1.48
14,NCI-H1648,0.63
15,H3255,0.987
16,LOU-NH91,0.755
17,ChaGo-K-1,0.895
18,NCI-H2170,0.906
19,NCI-H2405,0.732
20,HOP-62,0.589
21,HCC-44,0.983
22,NCI-H522,1
23,LU99A,0.329
24,BEN,0.685
25,HARA,0.221
26,SW 900,0.637
27,CAL-12T,0.701

# Same assay, conditions: first compound 0.03162 µM
row,Cell Line,relative viability
1,NCI-H2342,0.507
2,NCI-H727,0.494
3,NCI-H1993,0.637
4,NCI-H838,0.949
5,LCLC-103H,0.739
6,NCI-H2126,1.1
7,EMC-BAC-2,1.1
8,NCI-H2085,0.984
9,HCC-366,0.228
10,NCI-H1666,0.818
11,NCI-H596,1.06
12,LK-2,0.329
13,NCI-H2087,1.13
14,H3255,0.903
15,LOU-NH91,0.79
16,ChaGo-K-1,0.838
17,NCI-H2170,0.892
18,NCI-H2405,0.724
19,HOP-62,0.557
20,HCC-44,0.998
21,NCI-H522,0.661
22,LU99A,0.29
23,BEN,0.754
24,HARA,0.301
25,SW 900,0.616
26,CAL-12T,0.623

# Same assay, conditions: first compound 0.3162 µM
row,Cell Line,relative viability
1,NCI-H2342,0.508
2,NCI-H727,0.604
3,NCI-H1703,0.152
4,NCI-H1993,0.736
5,NCI-H838,0.936
6,LCLC-103H,0.807
7,NCI-H2126,1.04
8,EMC-BAC-2,1.03
9,NCI-H2085,0.986
10,HCC-366,0.293
11,NCI-H1666,0.917
12,NCI-H596,0.982
13,LK-2,0.347
14,NCI-H2087,1.49
15,NCI-H1648,0.578
16,H3255,0.937
17,LOU-NH91,0.643
18,ChaGo-K-1,0.843
19,NCI-H2170,0.954
20,NCI-H2405,0.683
21,HOP-62,0.621
22,HCC-44,1.08
23,NCI-H522,0.859
24,LU99A,0.538
25,BEN,0.697
26,HARA,0.263
27,SW 900,0.677
28,CAL-12T,0.58

# Same assay, conditions: first compound 1 µM
row,Cell Line,relative viability
1,NCI-H2342,0.447
2,NCI-H727,0.414
3,NCI-H1703,0.148
4,NCI-H1993,0.38
5,NCI-H838,0.861
6,LCLC-103H,0.901
7,NCI-H2126,1.13
8,EMC-BAC-2,1.19
9,NCI-H2085,1.02
10,HCC-366,0.371
11,NCI-H1666,0.863
12,NCI-H596,0.938
13,LK-2,0.19
14,NCI-H2087,0.58
15,NCI-H1648,1.12
16,H3255,0.876
17,LOU-NH91,0.713
18,ChaGo-K-1,0.844
19,NCI-H2170,0.75
20,NCI-H2405,0.527
21,HOP-62,0.743
22,HCC-44,1
23,NCI-H522,0.904
24,LU99A,0.342
25,BEN,0.704
26,HARA,0.415
27,SW 900,0.477
28,CAL-12T,0.354

# Compound: C1=CC2=C(C=C(C(=C2N=C1)O)N=NC3=CC4=C(C=C3)C=C(C=C4)S(=O)(=O)O)S(=O)(=O)O + O=C(c1cc(Cc2n[nH]c(=O)c3ccccc23)ccc1F)N1CCN(C(=O)C2CC2)CC1 [Olaparib] (partner 8 µM)
# Assay: as above
# Conditions: first compound 0.08 µM
# Method in brief: as §1
row,Cell Line,relative viability
1,NCI-H2342,0.476
2,NCI-H727,0.635
3,NCI-H1650,0.825
4,EBC-1,0.808
5,NCI-H1703,0.3
6,NCI-H1993,1.03
7,SW 1573,0.574
8,NCI-H838,0.781
9,LCLC-103H,0.774
10,NCI-H520,0.327
11,NCI-H2126,0.957
12,EMC-BAC-2,0.504
13,NCI-H2085,0.866
14,Calu-6,0.55
15,HCC-366,0.432
16,NCI-H1666,0.863
17,NCI-H596,0.7
18,LK-2,0.892
19,NCI-H2087,0.688
20,SK-MES-1,0.793
21,H3255,0.6
22,COR-L23,0.308

row,Cell Line,relative viability
1,COR-L 105,0.676
2,IA-LM,1.01
3,LOU-NH91,1.01
4,ChaGo-K-1,0.445
5,NCI-H2170,0.639
6,NCI-H2405,0.85
7,HOP-62,0.403
8,HCC-44,1.02
9,A549,0.469
10,NCI-H522,0.601
11,LU99A,0.264
12,BEN,0.868
13,HARA,0.959
14,SW 900,1.1
15,NCI-H2009,0.656
16,NCI-H661,0.744
17,SK-LU-1,0.603
18,NCI-H1299,1.01
19,CAL-12T,0.85
20,NCI-H2228,0.779
21,NCI-H2023,0.509

# Same assay, conditions: first compound 0.253 µM
row,Cell Line,relative viability
1,NCI-H2342,0.466
2,NCI-H727,0.676
3,NCI-H1650,0.677
4,EBC-1,0.634
5,NCI-H1993,0.931
6,SW 1573,0.413
